{
  "source": "patent US11649475B2",
  "about": "“Dioxetane compounds and their use for the detection of microorganisms” (NEMIS Technologies AG, priority 2018, dated 2023)",
  "key": {"[1]": {"tested_on": "Citrobacter freundii ATCC 8090", "assay": "Luminescence of culture samples after addition of Compound IIa", "format": "cell-based", "conditions": "C.f., inoculation density 10^5 CFU/mL, 6 h cultivation, 10 μM", "text": "(§1) Citrobacter freundii ATCC 8090 (C.f., […] negative), Escherichia coli ATCC 25922 (E.c., […] negative), Salmonella Typhimurium (D) ATCC […]., Salmonella enterica ssp. I ser. Typhimurium, […] positive), Salmonella Enteritidis (D) ATCC […]. 1, Salmonella enterica ssp. enterica ser. Enteritidis, […] positive) and Salmonella Enteritidis RKI 05/[…]. 2, Salmonella enterica ssp. enterica ser. […] Similar cell concentrations of all strains were inoculated in triplicate test tubes with Nutrient Broth. […] Sterile saline was added to negative control tubes. […] Final concentration Compound IIa was 10 μM, final concentration of dimethyl sulfoxide was […]. Light emission was recorded with a plate reader equipped with a luminescence detection system."}, "[2]": {"tested_on": "Escherichia coli ATCC 25922", "assay": "Luminescence of culture samples after addition of Compound IIa", "format": "cell-based", "conditions": "E.c., inoculation density 10^5 CFU/mL, 6 h cultivation, 10 μM", "text": "as §1"}, "[3]": {"tested_on": "Salmonella Typhimurium (D) ATCC 14028", "assay": "Luminescence of culture samples after addition of Compound IIa", "format": "cell-based, Salmonella enterica ssp. I ser. Typhimurium", "conditions": "S.T., inoculation density 10^5 CFU/mL, 6 h cultivation, 10 μM", "text": "as §1"}, "[4]": {"tested_on": "Salmonella Enteritidis (D) ATCC 13076", "assay": "Luminescence of culture samples after addition of Compound IIa", "format": "cell-based, Salmonella enterica ssp. enterica ser. Enteritidis", "conditions": "S.E. 1, inoculation density 10^5 CFU/mL, 6 h cultivation, 10 μM", "text": "as §1"}, "[5]": {"tested_on": "Salmonella Enteritidis RKI 05/07992", "assay": "Luminescence of culture samples after addition of Compound IIa", "format": "cell-based, Salmonella enterica ssp. enterica ser. Enteritidis", "conditions": "for Signal to noise ratio (to sterile) / Mean RLU (n = 3): 6 h cultivation, 10 μM; for Mean RLU (n = 3): 27-30 min after addition", "text": "as §1"}, "[6]": {"tested_on": "phosphatidylinositol-specific phospholipase C (PI-PLC)", "assay": "Enzymatic assay of PI-PLC activity with Compound IIIa", "format": "biochemical", "conditions": "10 μM, 20 min measurement period", "method": "Varying concentrations of phosphatidylinositol-specific phospholipase C (PI-PLC) were added and luminescence was recorded at room temperature (Table 4). Assays were performed in a white microtiter plate with 0.25 mL total liquid volume."}, "[7]": {"tested_on": "Salmonella Enteritidis RKI 05/07992", "assay": "Limit of detection of Salmonella enterica, Compound IIa versus MUCAP", "format": "cell-based", "conditions": "Compound IIa 10 μM versus MUCAP 0.1 mM, PBS, 15% DMSO", "procedure": "Salmonella Enteritidis RKI 05/07992 was cultivated in Nutrient Broth (5 g/I peptone, 5 g/l NaCl, 2 g/L yeast extract, 1 g/l beef extract, pH 7.4) for 20 h (37° C., 150 rpm) and then serially diluted in phosphate buffered saline. Cell suspensions were mixed 1:1 v/v with phosphate buffered saline containing dimethyl sulfoxide (final concentration in assay 15%) and either Compound IIa (final concentration 10 μM) or 4-Methylumbelliferyl caprylate (MUCAP, final concentration 0.1 mM). Assays were performed in microplates, total liquid volume was 0.2 mL. Light emission and fluorescence (excitation 360 nm, emission 455 nm) were recorded with a SpectraMax M5 (Molecular Devices, Sunnyvale, Calif., USA) plate reader. Cell concentration of undiluted culture was estimated from optical density (600 nm)."}, "pig liver esterase": {"tested_on": "pig liver esterase", "assay": "Enzymatic assay of pig liver esterase activity with Compound IIa", "conditions": "62.5 μM, PBS pH 7.4, 10% v/v DMSO, 20 min measurement period", "procedure": "The assay mix was pre-incubated for 20 min at room temperature, then 1:5 v/v of pig liver esterase solutions containing varying enzyme concentrations were added and luminescence was recorded for 20 min at room temperature with a SpectraMax M5 reader in luminescence mode. Assays were performed in a black microtiter plate with a total liquid volume of 0.25 mL."}, "glucose": {"tested_on": "glucose", "assay": "Detection of glucose in Escherichia coli culture supernatant with compound VIa and glucose oxidase", "format": "biochemical", "conditions": "40 μM compound VIa in HEPES buffer pH 7.0, 1 mg/mL glucose oxidase, 20 min", "method": "Cells were separated from culture supernatant by centrifugation (13'000×g, 2 min). […] A second negative control also contained 5 mM glucose, but no glucose oxidase. Culture supernatant with and without glucose (0.1 mL) was mixed in a white microtiter plate with 0.1 mL of HEPES buffer (100 mM, pH 7.0) containing 40 μM of compound VIa, reacting with hydrogen peroxide) and 1 mg/mL commercially available glucose oxidase from Aspergillus niger. […] Presence of glucose lead to continuously increasing luminescence when compound Via and glucose oxidase were also present."}, "[8]": {"tested_on": "Methicillin-resistant Staphylococcus aureus ATCC 33592 (MRSA)", "assay": "Luminescence development in cultures with and without oxacillin, Compound IVa", "format": "cell-based", "conditions": "oxacillin 20 mg/L, 6 h, 10 μM compound IVa as indicator", "method": "(§2) Methicillin-resistant Staphylococcus aureus ATCC 33592 (MRSA), a strain which is resistant to penicillin derivatives such as methicillin and oxacillin, and methicillin-susceptible Staphylococcus aureus ATCC 29213 (MSSA) were cultivated overnight at 37° C. in nutrient broth (5 g/L peptone, 5 g/L sodium chloride, 2 g/L yeast extract, 1 g/L meat extract, pH 7.4) and diluted in sterile saline. MRSA and MSSA strains were inoculated at approx. 10^6 CFU/mL in nutrient broth containing compound IVa at a final concentration of 10 μM. For each strain, one culture was supplemented with oxacillin (20 mg/L final concentration) and one culture was left without antibiotics. Tube cultures were incubated at 37° C. and 150 rpm. A sterile control (nutrient broth with 10 μM of compound IVa) was incubated in parallel. Luminescence of culture samples (0.2 mL in a white microtiter plate) was recorded at regular intervals for 6 h with a SpectraMax M5 plate reader (FIG. 4: Luminescence development in cultures of MRSA and MSSA in the presence and absence of the antibiotic oxacillin). […] Growing and non-growing cultures could be distinguished after 1 h of incubation."}, "[9]": {"tested_on": "methicillin-susceptible Staphylococcus aureus ATCC 29213 (MSSA)", "assay": "Luminescence development in cultures with and without oxacillin, Compound IVa", "format": "cell-based", "conditions": "oxacillin 20 mg/L, 6 h, 10 μM compound IVa as indicator", "method": "as §2"}, "[10]": {"conditions": "S.E. 2, inoculation density 10^1 CFU/mL"}, "[11]": {"conditions": "S.E. 2, inoculation density 10^2 CFU/mL"}, "[12]": {"conditions": "S.E. 2, inoculation density 10^3 CFU/mL"}, "[13]": {"conditions": "S.E. 2, inoculation density 10^4 CFU/mL"}, "[14]": {"conditions": "S.E. 2, inoculation density 10^5 CFU/mL"}},
  "data": [
    {"smiles": "CCCCCCCC(=O)Oc1ccc(COc2c(/C=C/C(=O)O)ccc(C3(OC)OOC34C3CC5CC(C3)CC4C5)c2Cl)cc1", "note": "(stereo not shown) [Compound IIa]", "values": [
      {"measurement": "Signal to noise ratio (to sterile)", "setting": "[1]", "value": 12},
      {"measurement": "Mean RLU (n = 3)", "setting": "[1]; 27-30 min after addition", "value": 6480, "unit": "RLU"},
      {"measurement": "Signal to noise ratio (to sterile)", "setting": "[2]", "value": 6},
      {"measurement": "Mean RLU (n = 3)", "setting": "[2]; 27-30 min after addition", "value": 3504, "unit": "RLU"},
      {"measurement": "Signal to noise ratio (to sterile)", "setting": "[3]", "value": 283},
      {"measurement": "Mean RLU (n = 3)", "setting": "[3]; 27-30 min after addition", "value": 228202, "unit": "RLU"},
      {"measurement": "Signal to noise ratio (to sterile)", "setting": "[4]", "value": 408},
      {"measurement": "Mean RLU (n = 3)", "setting": "[4]; 27-30 min after addition", "value": 158262, "unit": "RLU"},
      {"measurement": "Signal to noise ratio (to sterile)", "setting": "[5]; [10]", "value": 2},
      {"measurement": "Mean RLU (n = 3)", "setting": "[5]; [10]", "value": 1041, "unit": "RLU"},
      {"measurement": "Signal to noise ratio (to sterile)", "setting": "[5]; [11]", "value": 9},
      {"measurement": "Mean RLU (n = 3)", "setting": "[5]; [11]", "value": 5100, "unit": "RLU"},
      {"measurement": "Signal to noise ratio (to sterile)", "setting": "[5]; [12]", "value": 72},
      {"measurement": "Mean RLU (n = 3)", "setting": "[5]; [12]", "value": 40236, "unit": "RLU"},
      {"measurement": "Signal to noise ratio (to sterile)", "setting": "[5]; [13]", "value": 275},
      {"measurement": "Mean RLU (n = 3)", "setting": "[5]; [13]", "value": 154011, "unit": "RLU"},
      {"measurement": "Signal to noise ratio (to sterile)", "setting": "[5]; [14]", "value": 693},
      {"measurement": "Mean RLU (n = 3)", "setting": "[5]; [14]", "value": 387911, "unit": "RLU"},
      {"measurement": "detectable inoculation density of Salmonella Enteritidis", "setting": "[5]; after 6 h of incubation, signal-to-noise ratio of 2 relative to sterile controls", "value": 10, "unit": "CFU/mL"},
      {"measurement": "relation of PI-PLC concentration and maximal RLU", "setting": "[6]", "value": "positive correlation over two orders of magnitude"},
      {"measurement": "limit of detection for Salmonella enterica, lower than with MUCAP", "setting": "[7]", "value": 625, "unit": "fold"},
      {"measurement": "relation of pig liver esterase concentration and maximal RLU", "setting": "pig liver esterase", "value": "positive linear correlation over two orders of magnitude"}
    ]},
    {"smiles": "COC1(c2ccc(/C=C/C(=O)O)c(B3OC(C)(C)C(C)(C)O3)c2)OOC12C1CC3CC(C1)CC2C3", "note": "(stereo not shown) [VIa]", "values": [
      {"measurement": "rate of increase of luminescence", "setting": "glucose", "value": "positive correlation with the glucose concentration"}
    ]},
    {"smiles": "Cc1onc(-c2ccccc2)c1C(=O)N[C@@H]1C(=O)N2[C@@H]1SC(C)(C)[C@@H]2C(=O)O", "note": "[oxacillin]", "values": [
      {"measurement": "growth by time course of luminescence intensity", "setting": "[8]", "value": "multiplied both in the presence and the absence of oxacillin"},
      {"measurement": "growth by time course of luminescence intensity", "setting": "[9]", "value": "showed an increase in luminescence only in the antibiotic-free culture"}
    ]}
  ]
}
